Assay results as given in the CheMixHub viscosity set.

Assay: xn = mol fraction of the nth substance listed

C1CCCCC1 + CCC(C)O
viscosity [mPa·s], 101.33 kPa
Settings | 298.15 K | 303.15 K | 313.15 K
x1 = 0.0998 | 2.334 | – | 1.442
x1 = 0.2045 | 1.841 | – | 1.19
x1 = 0.3002 | 1.524 | – | 1.023
x1 = 0.4007 | 1.285 | – | 0.8968
x1 = 0.4995 | 1.116 | – | 0.8098
x1 = 0.6 | 1.001 | – | 0.7497
x1 = 0.7028 | 0.9323 | – | 0.7106
x1 = 0.8005 | 0.8895 | – | 0.6896
x1 = 0.9036 | 0.872 | – | 0.6801
x2 = 0.1002 | – | 0.8606 | –
x2 = 0.1978 | – | 0.9196 | –
x2 = 0.3031 | – | 1.004 | –
x2 = 0.4019 | – | 1.107 | –
x2 = 0.4961 | – | 1.244 | –
x2 = 0.5974 | – | 1.435 | –
x2 = 0.695 | – | 1.68 | –
x2 = 0.799 | – | 1.996 | –
x2 = 0.8924 | – | 2.321 | –

CCC(C)=O + CCC(C)O
viscosity [mPa·s], 101.3 kPa
Settings | x2 = 0.1018 | x2 = 0.1991 | x2 = 0.2984 | x2 = 0.397 | x2 = 0.4966 | x2 = 0.5968 | x2 = 0.6985 | x2 = 0.8007 | x2 = 0.9003
298.15 K | 0.423 | 0.461 | 0.511 | 0.578 | – | 0.804 | 1.005 | 1.332 | 1.896
308.15 K | 0.38 | 0.415 | 0.452 | 0.505 | 0.576 | 0.677 | 0.824 | – | 1.426
318.15 K | 0.344 | 0.369 | 0.402 | 0.445 | 0.501 | 0.578 | 0.686 | 0.849 | 1.099

COC(C)=O + CCC(C)O
298.15 K, 101.33 kPa
Settings | viscosity [mPa·s]
x1 = 0.1056 | 1.854
x1 = 0.2017 | 1.275
x1 = 0.3076 | 0.921
x1 = 0.3884 | 0.771
x1 = 0.4935 | 0.64
x1 = 0.5697 | 0.559
x1 = 0.6653 | 0.485
x1 = 0.7801 | 0.429
x1 = 0.876 | 0.411

COc1ccccc1N + CCC(C)O
viscosity [mPa·s], 101 kPa
Settings | x1 = 0.1106 | x1 = 0.1844 | x1 = 0.2647 | x1 = 0.3523 | x1 = 0.4825 | x1 = 0.5919 | x1 = 0.6713 | x1 = 0.7566 | x1 = 0.8969
303.15 K | 2.843 | 3.007 | 3.188 | 3.385 | 3.681 | 3.931 | 4.114 | 4.314 | 4.656
308.15 K | 2.398 | 2.561 | 2.739 | 2.935 | 3.229 | 3.483 | 3.671 | 3.878 | 4.233
313.15 K | 2.083 | 2.242 | 2.413 | 2.602 | 2.891 | 3.143 | 3.331 | 3.541 | 3.906
318.15 K | 1.788 | 1.942 | 2.107 | 2.29 | 2.572 | 2.825 | 3.017 | 3.231 | 3.6

COc1ccccc1N + CCCC(=O)O
viscosity [mPa·s], 100 kPa
Settings | x1 = 0.1187 | x1 = 0.1967 | x1 = 0.2806 | x1 = 0.3708 | x1 = 0.5026 | x1 = 0.6111 | x1 = 0.6888 | x1 = 0.7711 | x1 = 0.9041
303.15 K | 1.813 | 2.094 | 2.394 | 2.716 | 3.184 | 3.567 | 3.839 | 4.126 | 4.589
308.15 K | 1.646 | 1.911 | 2.194 | 2.497 | 2.937 | 3.298 | 3.554 | 3.824 | 4.259
313.15 K | 1.478 | 1.726 | 1.992 | 2.276 | 2.689 | 3.027 | 3.266 | 3.519 | 3.926
318.15 K | 1.313 | 1.547 | 1.796 | 2.063 | 2.451 | 2.768 | 2.992 | 3.229 | 3.611

COc1ccccc1N + CCCC(C)=O
viscosity [mPa·s], 100 kPa
Settings | x1 = 0.0932 | x1 = 0.1824 | x1 = 0.2643 | x1 = 0.3512 | x1 = 0.4494 | x1 = 0.5391 | x1 = 0.654 | x1 = 0.7787 | x1 = 0.8784
303.15 K | 0.887 | 1.312 | 1.695 | 2.099 | 2.548 | 2.952 | 3.46 | 3.999 | 4.421
308.15 K | 0.858 | 1.257 | 1.616 | 1.99 | 2.406 | 2.776 | 3.245 | 3.741 | 4.128
313.15 K | 0.829 | 1.202 | 1.537 | 1.879 | 2.262 | 2.598 | 3.028 | 3.481 | 3.832
